Test results reported in publication PMC3800051 (Bioorganic & medicinal chemistry letters, 2009).
“Also recorded” adds a separate entry of the source.

Tests used:
[1] = target: T1, PLD1 (Homo sapiens, UniProt Q13393); details: cellular assay, Calu-1 cells
T1 sequence (Q13393 1-1074): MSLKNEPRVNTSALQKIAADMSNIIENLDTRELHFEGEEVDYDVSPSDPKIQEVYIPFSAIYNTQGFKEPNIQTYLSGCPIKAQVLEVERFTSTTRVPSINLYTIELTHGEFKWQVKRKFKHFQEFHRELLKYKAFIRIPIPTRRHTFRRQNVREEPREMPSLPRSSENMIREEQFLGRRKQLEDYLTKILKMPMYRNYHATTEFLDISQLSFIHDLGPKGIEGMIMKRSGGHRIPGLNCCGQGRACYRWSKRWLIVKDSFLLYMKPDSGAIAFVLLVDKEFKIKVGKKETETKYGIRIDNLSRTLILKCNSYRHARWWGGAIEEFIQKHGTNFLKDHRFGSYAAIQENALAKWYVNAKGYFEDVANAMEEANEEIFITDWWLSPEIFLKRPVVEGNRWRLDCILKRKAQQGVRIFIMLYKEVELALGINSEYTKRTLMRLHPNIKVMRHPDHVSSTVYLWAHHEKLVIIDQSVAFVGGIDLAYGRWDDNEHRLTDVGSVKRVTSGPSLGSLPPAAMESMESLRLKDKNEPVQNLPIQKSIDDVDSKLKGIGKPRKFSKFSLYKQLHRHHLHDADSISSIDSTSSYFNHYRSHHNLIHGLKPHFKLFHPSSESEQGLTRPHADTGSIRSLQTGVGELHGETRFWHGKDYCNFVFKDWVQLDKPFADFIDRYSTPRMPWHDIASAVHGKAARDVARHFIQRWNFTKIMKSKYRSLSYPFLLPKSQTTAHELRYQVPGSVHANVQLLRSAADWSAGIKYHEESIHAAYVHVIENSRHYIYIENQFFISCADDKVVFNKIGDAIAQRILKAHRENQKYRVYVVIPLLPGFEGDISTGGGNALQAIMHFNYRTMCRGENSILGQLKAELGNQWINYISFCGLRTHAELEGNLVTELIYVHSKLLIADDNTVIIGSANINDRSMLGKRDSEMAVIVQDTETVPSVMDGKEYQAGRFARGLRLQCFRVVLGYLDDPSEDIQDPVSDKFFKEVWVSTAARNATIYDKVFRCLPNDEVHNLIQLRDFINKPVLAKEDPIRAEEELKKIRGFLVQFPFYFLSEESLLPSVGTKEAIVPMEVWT

[2] = target: PLD2 (Homo sapiens, UniProt O14939); details: cellular assay, HEK293-gfpPLD2 cells
[3] = target: T1, PLD1; assay: cell-based

Sequence of PLD2 (O14939 whole entry): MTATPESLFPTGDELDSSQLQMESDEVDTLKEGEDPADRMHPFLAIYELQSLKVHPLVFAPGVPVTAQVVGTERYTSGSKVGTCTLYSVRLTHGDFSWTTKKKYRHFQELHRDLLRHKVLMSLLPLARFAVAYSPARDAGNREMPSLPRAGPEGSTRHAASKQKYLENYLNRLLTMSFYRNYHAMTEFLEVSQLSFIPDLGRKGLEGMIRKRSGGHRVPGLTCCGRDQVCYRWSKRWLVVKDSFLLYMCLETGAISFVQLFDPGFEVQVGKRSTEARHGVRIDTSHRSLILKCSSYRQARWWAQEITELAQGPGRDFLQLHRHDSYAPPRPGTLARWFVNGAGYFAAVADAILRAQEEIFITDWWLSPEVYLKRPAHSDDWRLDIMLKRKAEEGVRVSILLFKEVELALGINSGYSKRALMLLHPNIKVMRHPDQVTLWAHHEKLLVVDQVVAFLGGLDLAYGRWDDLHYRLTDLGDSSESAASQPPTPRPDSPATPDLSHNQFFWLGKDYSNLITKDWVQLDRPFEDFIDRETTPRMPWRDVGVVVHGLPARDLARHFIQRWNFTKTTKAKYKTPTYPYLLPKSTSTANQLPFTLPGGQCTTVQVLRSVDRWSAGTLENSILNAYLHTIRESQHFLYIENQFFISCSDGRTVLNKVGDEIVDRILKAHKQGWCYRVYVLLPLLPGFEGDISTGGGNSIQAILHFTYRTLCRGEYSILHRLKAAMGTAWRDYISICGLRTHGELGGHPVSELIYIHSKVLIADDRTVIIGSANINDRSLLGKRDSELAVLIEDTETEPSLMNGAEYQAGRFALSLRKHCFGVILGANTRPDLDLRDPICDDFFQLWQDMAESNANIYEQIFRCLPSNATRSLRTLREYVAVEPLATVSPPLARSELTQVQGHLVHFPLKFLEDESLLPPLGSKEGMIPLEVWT

For `O=C(NCCN1CCC2(CC1)C(=O)NCN2c1ccccc1)[C@H]1C[C@@H]1c1ccccc1` [Compound 9a], the “PLD1 inhibition (in words)” value [1] was “inactive on both PLD isoforms; also recorded: complete loss of PLD inhibition” and the “PLD2 inhibition (in words)” value [2] was “inactive on both PLD isoforms; also recorded: complete loss of PLD inhibition”.
`O=C(NCCN1CCC2(CC1)C(=O)NCN2c1ccccc1)c1cnc2ccccc2n1` [Compound 9g] was tested, and the “PLD1 inhibition (in words)” value [1] was “complete loss of PLD inhibitory activity” and the “PLD2 inhibition (in words)” value [2] was “complete loss of PLD inhibitory activity”.
`C[C@@H](CN1CCC2(CC1)C(=O)NCN2c1ccccc1)NC(=O)[C@H]1C[C@@H]1c1ccccc1` [Compound 10b] was tested, and the “PLD2 inhibition (in words)” value [2] was “no effect, relative to 9a, on PLD2 inhibition”.
`c1cc(N2CCNCC2)ccn1` [Compound 15] was tested, and the IC50 [3] was 3.6 to 18 µM.
`c1ccc(N2CCNCC2)nc1` [Compound 16] showed an IC50 [3] of 3.6 to 18 µM.
